Source: patent US20110214194A1 (priority 2005, published 2011)

Assays:
peritoneal macrophages [1] = assay type: cell-based, mouse
type I IFN = assay type: cell-based, mouse; conditions: Heedless macrophages, 100 ng/ml, 4 hours
IRF-3 = assay: Immunoblot analysis of IRF-3 activation in macrophages; assay type: cell-based, mouse; conditions: heedless mutant cells, lipid A 100 ng/ml
NF-κB, ERK1 and ERK2 = assay: Immunoblot analysis of IκB and ERK (p42/44) phosphorylation in macrophages; assay type: cell-based, mouse; conditions: Heedless macrophages, lipid A 100 ng/ml
peritoneal macrophages [2] = conditions: Trif mutant macrophages; cited from earlier work

Row | Substance | TNF production in response to the inducer: effect of the Heedless mutation (peritoneal macrophages [1]) | further results
1 | MALP-2 | partial impairment of the response | –
2 | Pam2CSK4 | partial impairment of the response | –
3 | Pam3CSK4 | normal | –
4 | lipid A | – | signaling via the MyD88-independent pathway (type I IFN production): effect of the Heedless mutation (type I IFN): prevented; formation of the IRF-3 phosphodimer (IRF-3): not detected; activation of NF-κB and phosphorylation of ERK1 and ERK2 (NF-κB, ERK1 and ERK2): occurred normally; lipid A-induced TNF production (peritoneal macrophages [2]): rather severe impairment
5 | lipoteichoic acid | partial impairment of the response | –
6 | poly IC | normal | –
